Patent US20180110785A1, “METHODS AND COMPOSITIONS FOR AMELIORATING SYMPTOMS ASSOCIATED WITH CHROMOSOMAL ABNORMALITIES” (priority 2014, published 2018)
Values joined by “and” are separate entries in the source; they are usually repeats but may differ in a detail not shown here. Identical values can stand only once. “Also recorded” adds a separate entry of the source. Like-named read-outs stand apart in the source and are kept apart here.

What was measured:
Ts65Dn mice [1] = settings: TsSAG vs EuVeh and TsVeh; cited from earlier work
[2] = in vivo; cited from earlier work
primary GCP cultures = settings: compared with Shh-Np; cited from earlier work
Ts65Dn mice [3] = settings: cited from earlier work
Ts65Dn mice [4] = system: Ts65Dn mice; design: cerebellar cross-sectional area at the midline and GC density: dose or concentration left out as unconfirmed; settings: cited from earlier work
[5] = system: Schaffer collateral-CA1 synapses of Ts65Dn mice; settings: cited from earlier work
[6] = system: cerebellar Purkinje cells of Ts65Dn and euploid mice; settings: cited from earlier work
[7] = system: Schaffer collateral-CA1 synapses of Ts65Dn mice; settings: cited from earlier work; for TBS-induced LTP, fEPSP: hippocampal slices from TsSAG mice
Ts65Dn mice [8] = settings: SAG and BrdU co-injected at P0; cited from earlier work
Ts65Dn mice [9] = settings: cited from earlier work; remark: listed apart in the source
Ts65Dn mice [10] = settings: SAG-treated mice, first 4 months of life; cited from earlier work
[11] = system: Sonic hedgehog (Shh) in parotid saliva; assay: Saliva sonic hedgehog in patients with taste dysfunction after oral theophylline (Example 3), ELISA; assay type: in vivo, human
[12] = system: patients with taste dysfunction; assay: Subjective taste acuity and flavor perception in hypogeusic patients after oral theophylline (Example 2); assay type: in vivo, human; settings: for flavor perception, degree of improvement / taste acuity, degree of improvement: mean ± SEM
Description: Shh was measured in parotid saliva of both normal subjects and in patients with taste dysfunction of multiple etiologies by use of a sensitive spectrophotometric ELISA assay. Taste dysfunction was defined clinically by both subjective changes of taste acuity and flavor perception and by impaired gustometry. Patients were treated with oral theophylline 200-800 mg daily for 2-10 months with saliva Shh and taste function measured at intervals of 2-8 months.
Subjective statements of taste acuity loss and loss of flavor perception were quantitated by use of a scale from 0-100 with 100 reflecting total loss of taste acuity or flavor perception, 0 reflecting no loss and a number between 0-100 reflecting appropriate degree of loss. […] Mean±SEM of loss degree was measured among all patients and each pathology initiating taste dysfunction.
Saliva Shh and measurements of taste function by use of subjective responses of acuity and flavor perception and in olfactometry was measured at intervals of 2-6 months in these patients.

[13] = system: patients with smell loss (hyposmia); settings: prior hyposmic patients treated with oral theophylline (earlier studies); cited from earlier work
[14] = system: Sonic hedgehog (Shh) in parotid saliva; assay: Sonic hedgehog in parotid saliva of patients with taste dysfunction after oral theophylline (Example 2), ELISA; assay type: in vivo, human; settings: for saliva sonic hedgehog after treatment with oral theophylline: mean ± SEM
[15] = system: patients with smell loss (hyposmia); assay: Smell function (olfactometry, subjective) in hyposmic patients after oral theophylline; assay type: in vivo, human
[16] = system: patients with taste dysfunction; assay: Gustometry (DT, RT, ME for four tastants) before and after theophylline (Example 3)
[17] = system: Sonic hedgehog (SHH) in nasal mucus; assay: Sonic hedgehog in nasal mucus of hyposmic patients after oral theophylline, spectrophotometric ELISA; assay type: in vivo, human
[18] = system: ShhN (sonic hedgehog) in nasal mucus; assay: ShhN nasal mucus vs PDE inhibitor comparison (Example 10); assay type: in vivo, human
[19] = hippocampal slices from Ts65Dn mice
[20] = patients with taste dysfunction
[21] = theophylline treated (81), mean ± SEM

For `CNC1CCC(N(Cc2cccc(-c3ccncc3)c2)C(=O)c2sc3ccccc3c2Cl)CC1` (stereo not drawn) [SAG], the “open-field performance (time in periphery or center)” value (Ts65Dn mice [1]) is given as “no significant differences were observed with TsSAG; also recorded: does not affect open-field performance”, the “crossing of biological barriers” value [2] is given as “crosses the gut, the placenta, and the blood-brain barrier; also recorded: penetrates the blood-brain barrier” and the mitogenic activity (primary GCP cultures) is given as “had mitogenic activity in primary GCP cultures”. For the same compound, the “Y maze performance (alternation, arm entrances; words)” value (Ts65Dn mice [3]; Ts65Dn mice) was “did not have an effect on either outcome in Ts65Dn mice; also recorded: does not improve Y maze performance in Ts65Dn mice”, the Y maze alternation (Ts65Dn mice [3]; TsSAG mice (EuVeh 78%)) was 60% and the “GCP number at P6” value (Ts65Dn mice [4]; Ts65Dn mice, SAG subcutaneously on the day of birth) was “normalized GCP number”. For the same compound, the “cerebellar cross-sectional area at the midline and GC density” value (Ts65Dn mice [4]; adult (about 16 weeks) Ts65Dn mice, single injection of SAG on the day of birth) was “had the same cross-sectional area and GC density as EuVeh; also recorded: normalizes cerebellar morphology in adult Ts65Dn mice”, the “GCP number at P6” value (Ts65Dn mice [4]; euploid mice (EuSAG), single dose of SAG at P0) was “did not significantly increase GCP number at P6” and the NMDA/AMPA ratio ([5]; TsSAG, n=11) was 0.19±0.034. For the same compound, the “NMDA-EPSCs” value [5, 19] was “partially rescues attenuated NMDA-EPSCs in hippocampal slices from Ts65Dn mice”, the “depression of EPSC after induction of LTD” value ([6]; Ts65Dn mice, limited to lobule III, P=0.019) was “more depression of EPSC after the induction of LTD” and the PPR values ([6]; euploid mice, lobule IX, P=0.005) was “significantly decreased the PPR values measured in lobule IX”. The “EPSC paired-pulse ratios (PPR) of Purkinje cells” value ([6]; trisomic mice, lobule III and IX) was “did not restore the PPR values in trisomic mice”, the “TBS-LTP” value [7, 19] was “rescues attenuated TBS-LTP in hippocampal slices from Ts65Dn mice” and the “TBS-induced LTP, fEPSP” value ([7]; t=30 min) was 132.9±2.2 % of baseline. The “TBS-induced LTP, fEPSP” value ([7]; t=80 min) was 127.4±2.0 % of baseline, the “dentate gyrus deficit / proliferation at P6” value (Ts65Dn mice [8]) was “Dentate gyrus is not affected by SAG treatment” and the MWM search strategies (Ts65Dn mice [9]; TsSAG mice) was “used the same successful strategies as EuVeh; also recorded: normalizes search strategies of Ts65Dn mice in the MWM”. For the same compound, the “performance in MWM / tasks dependent on hippocampus” value (Ts65Dn mice [9]; adult Ts65Dn mice, single SAG treatment at P0) was “normalized performance of adult Ts65Dn mice in the MWM; also recorded: corrects performance of trisomic mice in tasks dependent on hippocampus”, the MWM performance (Ts65Dn mice [9]; euploid mice) was “had no effect on the performance of euploid mice” and the “tumor formation or complications” value (Ts65Dn mice [10]) was “no evidence of tumor formation or obvious complications in the first 4 months of life”.

For `Cn1c(=O)c2[nH]cnc2n(C)c1=O` [Theophylline, theophylline], the “saliva sonic hedgehog after oral theophylline” value ([11]; PIHH (27), mean ± SEM) was 210 ± 12 pmol/mL, the “saliva sonic hedgehog after oral theophylline” value ([11]; allergic rhinitis (26), mean ± SEM) was 212 ± 14^+ pmol/ml and the “saliva sonic hedgehog after oral theophylline” value ([11]; anesthesia induced (2)) was 151 pmol/mL. The “saliva sonic hedgehog after oral theophylline” value ([11]; congenital (10), mean ± SEM) was 132 ± 23 pmol/mL, the “saliva sonic hedgehog after oral theophylline” value ([11]; head injury (14), mean ± SEM) was 115 ± 15 pmol/mL and the “increase of saliva Shh levels by theophylline” value [11, 20] was roughly 2 fold. For the same compound, the “saliva sonic hedgehog after oral theophylline” value ([11]; post radiation (1)) was 145 pmol/mL, the saliva sonic hedgehog ([11]; theophylline treated patients (81), mean ± SEM) was 102 ± 10 pmol/mL and the “patients with improvement in both subjective taste acuity and flavor perception” value ([12]; after oral theophylline) was “about 60%”. For the same compound, the “flavor perception, improvement number” value ([12]; all patients (79)) was 45, the “flavor perception, percent improved” value ([12]; all patients (79)) was 63% and the “taste acuity, percent improved” value ([12]; all patients (79)) was 63%. The “taste acuity, improvement number” value ([12]; all patients (79), oral theophylline) was 45, the “flavor perception, degree of improvement” value ([12]; all patients (79)) was 24 ± 4% and the “taste acuity, degree of improvement” value ([12]; all patients (79)) was 28 ± 4^+ %. For the same compound, the “flavor perception, improvement number” value ([12]; men (38)) was 22, the “flavor perception, percent improved” value ([12]; men (38)) was 58% and the “taste acuity, improvement number” value ([12]; men (38)) was 21. The “taste acuity, percent improved” value ([12]; men (38)) was 55%, the “flavor perception, degree of improvement” value ([12]; men (38)) was 18 ± 4% and the “taste acuity, degree of improvement” value ([12]; men (38)) was 20 ± 5%. For the same compound, the “taste function after theophylline” value [12, 20] was “improved both subjective taste function and gustometry”, the “flavor perception, improvement number” value ([12]; women (41)) was 23 and the “flavor perception, percent improved” value ([12]; women (41)) was 54%. The “taste acuity, improvement number” value ([12]; women (41)) was 24, the “taste acuity, percent improved” value ([12]; women (41)) was 59% and the “flavor perception, degree of improvement” value ([12]; women (41)) was 36 ± 6%. For the same compound, the “taste acuity, degree of improvement” value ([12]; women (41)) was 35 ± 6%, the “smell improvement, percent of patients” value [13] was “over 50%” and the “saliva sonic hedgehog after treatment with oral theophylline” value (“saliva sonic hedgehog after treatment” for short) ([14]; hypogeusic patients after treatment (66), 200-1000 mg, 2-10 months) was 199 ± 20 pmol/mL. For the same compound, the “saliva sonic hedgehog after treatment” value ([14]; men (61) after treatment) was 180 ± 15 pmol/mL, the “Shh in parotid saliva after oral theophylline” value [14, 20] was “increased saliva Shh; also recorded: increased in parotid saliva to levels above those in normal subjects or in untreated patients” and the “saliva sonic hedgehog after treatment” value ([14]; women (58) after treatment) was 213 ± 33 pmol/mL. The “smell improvement, patient number” value ([15]; PIHH (10)) was 8, the “smell improvement, percent of patients” value ([15]; PIHH (10)) was 80% and the “smell improvement, patient number” value ([15]; all treated patients (31), oral theophylline) was 19. For the same compound, the “smell improvement, percent of patients” value ([15]; all treated patients, oral theophylline) was 60% and 61%, the “smell improvement, patient number” value ([15]; allergic rhinitis (11)) was 5 and the “smell improvement, percent of patients” value ([15]; allergic rhinitis (11)) was 45%. For the same compound, the “smell improvement, patient number” value ([15]; congenital (9)) was 5, the “smell improvement, percent of patients” value ([15]; congenital (9)) was 56% and the “smell improvement, patient number” value ([15]; post general anesthesia (1)) was 1. The “smell improvement, percent of patients” value ([15]; post general anesthesia (1)) was 100%, the “taste / gustometric function after theophylline” value [16, 20] was “improved subjectively in taste function; also recorded: improved gustometric functions of treated patients” and the “HCl DT” value [16, 21] was 3.6 ± 0.2. The “HCl ME” value [16, 21] was 54 ± 5, the “HCl RT” value [16, 21] was 3.7 ± 0.3 and the “NaCl DT (detection threshold)” value [16, 21] was 3.4 ± 0.2. For the same compound, the “NaCl ME (magnitude estimation)” value [16, 21] was 58 ± 5, the “NaCl RT (recognition threshold)” value [16, 21] was 3.6 ± 0.2 and the “sucrose DT” value [16, 21] was 3.3 ± 0.2. The “sucrose ME” value [16, 21] was 49 ± 5, the “sucrose RT” value [16, 21] was 3.6 ± 0.2 and the “urea DT” value [16, 21] was 3.9 ± 0.3. For the same compound, the “urea ME” value [16, 21] was 54 ± 5, the “urea RT” value [16, 21] was 3.9 ± 0.3 and the “sonic hedgehog concentration in nasal mucus, treatment with oral theophylline” value (“sonic hedgehog concentration” below) ([17]; PIHH patients (10), mean ± SEM) was 70735 ± 5751^a,a1 (10) pg/ml. The “sonic hedgehog concentration” value ([17]; all hyposmic patients (30 in Table 3, 31 in Table 4), mean ± SEM) was 49191 ± 1710^c,a1 (30) pg/ml and 49191 ± 1710^a (31) pg/ml, the “sonic hedgehog concentration” value ([17]; allergic rhinitis patients (11), mean ± SEM) was 24460 ± 2610^a,a1 (11) pg/ml and the “sonic hedgehog concentration” value ([17]; congenital smell loss patients (9), mean ± SEM) was 3825 ± 474^a,a1 (9) pg/ml. The “sonic hedgehog concentration” value ([17]; hyposmic men (17), oral theophylline 400-800 mg daily for 2-10 months, mean ± SEM) was 47952 ± 3085^a,a1 (17) pg/ml, the “sonic hedgehog concentration” value ([17]; hyposmic women (13), oral theophylline 400-800 mg daily for 2-10 months, mean ± SEM) was 3859 ± 303^a,a1 (13) pg/ml and the “increase of nasal mucus SHH over the untreated state” value (from here on “increase of nasal mucus SHH”) ([17]; men, oral theophylline) was 320 times. For the same compound, the “increase of nasal mucus SHH” value ([17]; patient post anesthesia, oral theophylline) was 48 times, the “increase of nasal mucus SHH” value ([17]; patients with PIHH, oral theophylline) was 46 times and the “increase of nasal mucus SHH” value ([17]; patients with allergic rhinitis, oral theophylline) was “over 719 times”. For the same compound, the “increase of nasal mucus SHH” value ([17]; patients with congenital smell loss, oral theophylline) was “over 21 times”, the “SHH levels in nasal mucus versus untreated state” value ([17]; patients with hyposmia, oral theophylline) was “significantly increased SHH levels in nasal mucus” and the “sonic hedgehog concentration” value ([17]; post general anesthesia patient (1)) was 57 (1) pg/ml. The “increase of nasal mucus SHH” value ([17]; women, oral theophylline) was 17 times.

Compound `O=C1CCc2cc(OCCCCc3nnnn3C3CCCCC3)ccc2N1` [cilostazol] has a sonic hedgehog levels in nasal mucus, mean ([18]; Patient ID No. 7, 100 mg cilostazol once per day orally for 4 months) of 769 pg/mL.

`O=C(Nc1c(Cl)cncc1Cl)c1ccc(OC(F)F)c(OCC2CC2)c1` [roflumilast] showed a sonic hedgehog levels in nasal mucus ([18]; Patient ID No. 11, 500 micrograms daliresp (roflumilast) orally once per day for 4 months) of 6660 pg/mL.
